Blank lines part the entries; values can stand above or below the compound they belong to.
Experiments:
[1] = test system: hEPO mRNA; assay: Pretreatment study (methotrexate or dexamethasone) with MC3 formulation in Cynomolgus monkeys; assay type: in vivo; conditions: MC3 formulation with hEPO mRNA, once weekly for four weeks
Description: In order to combat negative effects, nanoparticle compositions are co-administered with one or more substances (e.g., co-medications or additional therapeutic and/or prophylactics) to subjects. Potentially useful additional therapeutic and/or prophylactics include steroids (e.g., corticosteroids), anti-histamines, H1 receptor blockers, H2 receptor blockers, anti-inflammatory compounds, statins, BTK inhibitors, S1P1 agonists, glucocorticoid receptor modulators (GRMs), and estradiols. Non-human primates are pretreated with one or more additional therapeutic agents selected from dexamethasone and acetaminophen. The additional therapeutic agent is administered either 24 hours, 1 hour, or both 24 hours and 1 hour before administration of a nanoparticle composition. Cytokine profiles, inflammation, and other parameters are measured and compared to evaluate the effectiveness of pretreatment
The effects of pretreatment to non-human primates were evaluated using a standard MC3 formulation including an mRNA encoding hEPO. Male monkeys were administered the nanoparticle composition once weekly for four weeks at a dose rate of 5 ml/kg/h and were pretreated with either methotrexate or dexamethasone.
As shown, in the absence of any pretreatment, maximal expression levels decreased nearly 70% over the course of the study.

[2] = test system: mouse liver tissue; assay: Disappearance of parent lipid and primary metabolite from mouse liver after 0.25 mg/kg mRNA on days 1, 8 and 15; assay type: in vivo
Protocol: (§1) In vitro metabolite identification studies using compound 18 were also performed. […] The disappearance of parent compound 18 and the primary metabolite, compound 166, from mouse liver tissue was measured after dosing 0.25 mg/kg mRNA on days 1, 8, and 15.

[3] = test system: human hepatocytes; assay: Metabolite profiling of Compound 18 incubated with human hepatocytes; assay type: in vitro ADME; set-up: key: +: Detected; ND: Not detected; conditions: Compound 18 (10 μM), human hepatocytes
Protocol: as §1
The results of metabolic profiling and characterization for compound 18 incubated with human hepatocytes or human plasma are summarized in Tables 41 and 42, respectively.

[4] = Metabolite identification of Compound 18 incubated with human plasma; assay type: in vitro ADME; set-up: key to Detection at 0 min / Detection at 30 min / Detection at 60 min / Detection at 90 min: +: Detected; ND: Not detected; conditions: Compound 18 (10 μM), human plasma
Protocol: Metabolite Identification: Compound 18 (10 μM) was incubated with human plasma (29.0 mg protein/incubation) in incubation mixtures (200 μL final incubation volume) that consisted of 50/50 v/v neat plasma (undiluted)/substrate solution in 50 mM phosphate buffer, pH 7.4). The plasma was obtained from male and female donors and contained K2EDTA anticoagulant. Reactions were started by addition of the substrate solution to human plasma and were stopped at four designated time points (0, 30, 60 and 90 min) by the addition of 600 μL of stop reagent (acetonitrile). Stopped incubation samples were centrifuged (e.g., 10,000×g for 10 min at 10° C.) and the supernatant fractions were analyzed by LC-MS/MS to characterize the metabolites formed from compound 18. Additional incubations were performed with the positive control procaine […] to establish competency of the test system. Samples were analyzed by LC-MS/MS.
as §1

[5] = test system: luciferase (Luc) mRNA; assay: Luciferase expression (whole body bioluminescence) after intravenous administration to mice; assay type: in vivo; conditions: intravenous, luciferase
Method in brief: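 Luc mRNA nanoparticles were given IV at 0.5 mg/kg to groups of six mice, and whole-body bioluminescent flux was imaged 3, 6 and 24 h post-dose. Flux AUC for each lipid formulation was reported as a ratio to the MC3 reference formulation.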

[6] = test system: hEPO mRNA; assay: hEPO expression after intramuscular administration to mice; assay type: in vivo; conditions: Table 3G, intramuscular, hEPO, 6 hr. timepoint, relative to MC3
Protocol: The numbers 1-11 in this figure correspond to MC3, Compounds 18, 25, 30, 108-112, 60, and 122 respectively.
The expression of hEPO and cytokine induction in mice intravenously administered a nanoparticle composition at a dose of 0.5 mpk were measured at 3, 6, and 24 hours. […] The expression of hEPO in mice intramuscularly administered a nanoparticle composition from Table 1B at a dose of 0.01 mpk were measured at 3, 6, and 24 hours. […] (see

[7] = Encapsulation efficiency of RNA in nanoparticle compositions (RIBOGREEN assay); assay type: physicochemical; conditions: Table 1B; formulated with hEPO mRNA
Method in brief: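 Lipid nanoparticles (ionisable lipid:DSPC:cholesterol:PEG-DMG 50:10:38.5:1.5 mol %) carrying N1-methylpseudouridine luciferase or hEPO mRNA diluted to about 5 μg/mL in TE, pH 7.5, with or without 2% Triton X-100, 15 min at 37° C. RiboGreen fluorescence (ex ~480, em ~520 nm) blank-subtracted; free RNA = intact/disrupted signal.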

[8] = Particle size and polydispersity index of nanoparticle compositions (Zetasizer Nano ZS); assay type: physicochemical
Method in brief: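 Formulations of ionizable lipid, DSPC, cholesterol and PEG-DMG (50:10:38.5:1.5 mol %) carrying Luc or hEPO mRNA with all uridines as N1-methyl pseudouridine. Dynamic light scattering in 1×PBS gave particle size and polydispersity; zeta potential read in 15 mM PBS.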

[9] = test system: luciferase (Luc) mRNA; assay: Luciferase expression after intramuscular administration to mice; assay type: in vivo; conditions: Luc mRNA, intramuscular, 0.01 mpk, 6 hours
Method in brief: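 CD-1 mice received lipid nanoparticle formulations of modified luciferase mRNA intramuscularly at 0.01 mpk. Bioluminescence total flux was measured, including at 6 h, and AUC was expressed relative to MC3 formulations. Immunogenicity was assessed in parallel.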

[10] = test system: modified luciferase; assay: Luciferase expression in liver, lung, spleen and femur 6 hours after intravenous administration to mice; assay type: in vivo; conditions: 6 hours after intravenous 0.5 mpk, mice
Method in brief: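 Mice (n=3) got a single 0.5 mpk IV dose of each nanoparticle composition, with MC3 and PBS controls alongside. Organ luminescence flux was read 6 h post-dose.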

Compound: CN(Cc1cnc2nc(N)nc(N)c2n1)c1ccc(C(=O)N[C@@H](CCC(=O)O)C(=O)O)cc1 [Methotrexate, methotrexate]
Effect of pretreatment on protein expression [1]: did not confer any particular beneficial effect

clearance from mouse liver tissue [2]: rapid clearance
Detection at 60 min ([3]; 60 min): +
Detection at 120 min ([3]; 120 min): +
Detection at 240 min ([3]; 240 min): +
Detection at 30 min ([4]; 30 min): +
Detection at 60 min ([4]; 60 min): +
Detection at 90 min ([4]; 90 min): +
Compound: CCCCCCCCC(CCCCCCCC)OC(=O)CCCCCCCN(CCO)CCCCCCCC(=O)O [Compound 166, 8-((8-(Heptadecan-9-yloxy)-8-oxooctyl)(2-hydroxyethyl)amino)octanoic acid]

EE [7]: 96.40%
Size ([8]; Table 1A, lipid:DSPC:cholesterol:PEG-DMG 50:10:38.5:1.5 mol %): 83.7 nm
Size ([8]; Table 1B, formulated with hEPO mRNA): 60.6 nm
Size ([8]; Table 1C, compositions for subcutaneous administration): 83.7 nm
Compound: CCCCCCCCCOC(=O)CCCCCCCN(CCCCCCCC(=O)OC(CCCCCCCC)CCCCCCCC)CCCNC(=O)NC [Compound 112, Heptadecan-9-yl 8-((3-(3-methylureido)propyl)(8-(nonyloxy)-8-oxooctyl)amino)octanoate]
Novel lipid/MC3 ratio, i.v. ([5]; Table 3G, 6 hr. timepoint, relative to MC3): 0.08
Novel lipid/MC3 expression ratio, i.v. ([5]; 6 hr. time point, relative to MC3 formulation): 0.08
Novel lipid/MC3 ratio, i.m. hEPO [6]: 1.6
Total flux 6 hours after intramuscular administration, 0.01 mpk Dose [9]: 9.47E+07 p/s
Total Flux, Liver ([10]; liver): 1.48E+08
Total Flux, Lung ([10]; lung): 1.83E+06
Total Flux, Spleen ([10]; spleen): 2.75E+07

Source: patent US10857105B2, “Compounds and compositions for intracellular delivery of therapeutic agents” (ModernaTX, Inc., priority 2017, dated 2020)
